Assay results: paper PMC9147192, “Small Molecule Arranged Thermal Proximity Coaggregation (smarTPCA)—A Novel Approach to Characterize Protein–Protein Interactions in Living Cells by Similar Isothermal Dose–Responses” (International Journal of Molecular Sciences, 2022)

Columns and labels:
TRAPPC4 = TRAPPC4 (Homo sapiens, UniProt Q9Y296); assay: TPP-CCR in living HL-60 cells
RARS = target: T1, RARS (Homo sapiens, UniProt P54136); assay: TPP-CCR in living HL-60 cells; assay type: cell-based
T1 construct: endogenous in cells; host or cells: HL-60 (ATCC CCL-240)
T1 sequence (P54136 1-660): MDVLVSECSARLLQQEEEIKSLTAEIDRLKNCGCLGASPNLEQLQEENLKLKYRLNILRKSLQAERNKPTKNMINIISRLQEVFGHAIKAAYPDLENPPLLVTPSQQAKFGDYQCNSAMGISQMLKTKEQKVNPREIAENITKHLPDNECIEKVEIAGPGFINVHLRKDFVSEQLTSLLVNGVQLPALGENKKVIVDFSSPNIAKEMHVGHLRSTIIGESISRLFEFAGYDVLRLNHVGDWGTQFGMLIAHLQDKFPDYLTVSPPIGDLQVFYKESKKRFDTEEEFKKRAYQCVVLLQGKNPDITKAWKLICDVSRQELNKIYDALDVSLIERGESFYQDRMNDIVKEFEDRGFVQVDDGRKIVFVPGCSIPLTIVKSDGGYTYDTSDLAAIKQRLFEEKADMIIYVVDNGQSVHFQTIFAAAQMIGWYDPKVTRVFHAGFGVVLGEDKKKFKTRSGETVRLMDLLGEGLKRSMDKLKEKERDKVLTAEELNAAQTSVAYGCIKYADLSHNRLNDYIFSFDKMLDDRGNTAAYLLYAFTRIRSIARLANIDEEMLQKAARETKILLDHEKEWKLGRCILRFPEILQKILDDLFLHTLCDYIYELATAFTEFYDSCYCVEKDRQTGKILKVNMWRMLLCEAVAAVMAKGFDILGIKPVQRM

MAPK8 = tested on: MAPK8; design: method as in PMID 23398362; conditions: cited from earlier work
MYLK = tested on: MYLK; design: method as in PMID 23398362; conditions: cited from earlier work
MAPKAPK3 = tested on: MAPKAPK3; design: method as in PMID 23398362; conditions: cited from earlier work
[1] = living HL-60 cells, […] °C, TMT-MS

TRAPPC4, sequence (Q9Y296 whole entry): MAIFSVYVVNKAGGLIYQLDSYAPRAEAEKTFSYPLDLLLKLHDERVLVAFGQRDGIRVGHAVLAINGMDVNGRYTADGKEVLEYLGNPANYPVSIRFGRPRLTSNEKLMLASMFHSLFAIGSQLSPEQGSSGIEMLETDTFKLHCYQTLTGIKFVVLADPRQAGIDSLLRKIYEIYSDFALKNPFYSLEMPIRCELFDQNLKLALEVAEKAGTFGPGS

SMILES: Cn1c(NC[C@@H](N)Cc2ccccc2)nc(-c2ccncc2)c(-c2ccc3ccccc3c2)c1=O [AMG-548]
- EC50 (TRAPPC4): 407 nM
- Hill slope (TRAPPC4) (TRAPPC4; [1]): 0.43

SMILES: Cc1cnc(Nc2ccc(F)cc2Cl)nc1-c1c[nH]c(C(=O)N[C@H](CO)c2cccc(Cl)c2)c1 [ERK 11e]
- Hill slope (RARS; TPP-CCR, living cells, RARS): 0.38
- EC50 (RARS; [1]): 83.2 nM
- Hill slope (RARS) (RARS; [1]): 0.38

SMILES: C[S+]([O-])c1ccc(-c2nc(-c3ccncc3)c(-c3ccc(F)cc3)[nH]2)cc1 (centres unmarked) [SB203580]
- activity against MAPK8 (MAPK8): inactivity
- activity against MYLK (MYLK): inactivity
- activity against MAPKAPK3 (MAPKAPK3): inactivity
